Values of other authors, collected in patent US20090117079A1, “METHODS AND MATERIALS FOR TREATING OR PREVENTING DISEASES/DISORDERS MEDIATED BY ALCOHOL DEHYDROGENASE” (priority 2007, published 2009).

Tested on: alcohol dehydrogenase (ADH I)
Settings: competitive inhibition of ADH I in humans; affinity of ethanol relative to methanol

ethanol/methanol affinity ratio: 10/1
SMILES: CCO [ethanol]
